Laboratory results from ChEMBL document CHEMBL3046761, “Synthesis of 27-oxo, 27-hydroxymilbemycins A3 and A4 and novel 27-alkoxymilbemycins A3 and A4 from milbemycins A3 and A4 and their acaricidal activities” (2002).

Experiments:
[1] = system: Tetranychus urticae; test: Acaricidal activity against Tetranychus urticae (two-spotted spider mite) infected cowpea plant assessed as mortality at 1 ppm sprayed 24 hr post-infection measured after 3 days; format: functional
[2] = system: Tetranychus urticae; test: Acaricidal activity against Tetranychus urticae (two-spotted spider mite) infected cowpea plant assessed as mortality at 10 ppm sprayed 24 hr post-infection measured after 3 days; format: functional

Q: What does the source list for `CC1=C[C@H]2C(=O)O[C@H]3C[C@@H](C/C=C(\C)C[C@@H](C)/C=C/C=C(\C=O)[C@]2(O)[C@H](O)[C@@H]1O)O[C@@]1(CC[C@H](C)[C@@H](C)O1)C3`?
A: mortality at 1 ppm [1]: 7%; mortality at 10 ppm [2]: 17%

Q: `CC[C@H]1O[C@]2(CC[C@@H]1C)C[C@@H]1C[C@@H](C/C=C(\C)C[C@@H](C)/C=C/C=C(\C=O)[C@]3(O)[C@H](O)[C@H](O)C(C)=C[C@H]3C(=O)O1)O2` was tested. Which mortality at 1 ppm [1] did it give?
A: Its mortality at 1 ppm is 11%.

Q: What about the mortality at 10 ppm [2] of the same molecule?
A: The mortality at 10 ppm was 53%.

Q: With `CCO[C@H]1O[C@@H]2[C@H](O)C(C)=C[C@H]3C(=O)O[C@H]4C[C@@H](C/C=C(\C)C[C@@H](C)/C=C/C=C\1[C@]23O)O[C@@]1(CC[C@H](C)[C@@H](CC)O1)C4` [27-ALPHAETHOXY MILBEMYCIN A4] as the molecule, how does the mortality at 1 ppm [1] read?
A: Its mortality at 1 ppm is 25%.

Q: What about the mortality at 10 ppm [2] of the same molecule?
A: Its mortality at 10 ppm is 81%.

Q: With `CC[C@H]1O[C@]2(CC[C@@H]1C)C[C@@H]1C[C@@H](C/C=C(\C)C[C@@H](C)/C=C/C=C3\[C@@H](OC(C)C)O[C@@H]4[C@H](O)C(C)=C[C@@H](C(=O)O1)[C@]34O)O2` [27-ALPHAISOPROPOXY MILBEMYCIN A4] as the molecule, how does the mortality at 1 ppm [1] read?
A: Its mortality at 1 ppm is 14%.

Q: And the mortality at 10 ppm [2]?
A: Its mortality at 10 ppm is 76%.

Q: `CO[C@H]1O[C@@H]2[C@H](O)C(C)=C[C@H]3C(=O)O[C@H]4C[C@@H](C/C=C(\C)C[C@@H](C)/C=C/C=C\1[C@]23O)O[C@@]1(CC[C@H](C)[C@@H](C)O1)C4` [27-ALPHAMETHOXY MILBEMYCIN A3] was tested. Which mortality at 1 ppm [1] did it give?
A: Its mortality at 1 ppm is 8%.

Q: And the mortality at 10 ppm [2]?
A: Its mortality at 10 ppm is 72%.

Q: How did the mortality at 1 ppm [1] turn out when `CC[C@H]1O[C@]2(CC[C@@H]1C)C[C@@H]1C[C@@H](C/C=C(\C)C[C@@H](C)/C=C/C=C3\[C@@H](OC)O[C@@H]4[C@H](O)C(C)=C[C@@H](C(=O)O1)[C@]34O)O2` [27-ALPHAMETHOXY MILBEMYCIN A4] was run?
A: The mortality at 1 ppm was 17%.

Q: And the mortality at 10 ppm [2]?
A: Its mortality at 10 ppm is 92%.

Q: Which results are given for `CCO[C@@H]1O[C@@H]2[C@H](O)C(C)=C[C@H]3C(=O)O[C@H]4C[C@@H](C/C=C(\C)C[C@@H](C)/C=C/C=C\1[C@]23O)O[C@@]1(CC[C@H](C)[C@@H](CC)O1)C4` [27-BETAETHOXY MILBEMYCIN A4]?
A: mortality at 1 ppm [1]: 0%; mortality at 10 ppm [2]: 77%

Q: `CC[C@H]1O[C@]2(CC[C@@H]1C)C[C@@H]1C[C@@H](C/C=C(\C)C[C@@H](C)/C=C/C=C3\[C@H](OC(C)C)O[C@@H]4[C@H](O)C(C)=C[C@@H](C(=O)O1)[C@]34O)O2` [27-BETAISOPROPOXY MILBEMYCIN A4] was tested. Which mortality at 1 ppm [1] did it give?
A: The mortality at 1 ppm was 22%.

Q: What about the mortality at 10 ppm [2] of the same molecule?
A: The mortality at 10 ppm was 72%.

Q: What does the source list for `CO[C@@H]1O[C@@H]2[C@H](O)C(C)=C[C@H]3C(=O)O[C@H]4C[C@@H](C/C=C(\C)C[C@@H](C)/C=C/C=C\1[C@]23O)O[C@@]1(CC[C@H](C)[C@@H](C)O1)C4` [27-BETAMETHOXY MILBEMYCIN A3]?
A: mortality at 1 ppm [1]: 3%; mortality at 10 ppm [2]: 65%

Q: For `CC[C@H]1O[C@]2(CC[C@@H]1C)C[C@@H]1C[C@@H](C/C=C(\C)C[C@@H](C)/C=C/C=C3\[C@H](OC)O[C@@H]4[C@H](O)C(C)=C[C@@H](C(=O)O1)[C@]34O)O2` [27-BETAMETHOXY MILBEMYCIN A4], which mortality at 1 ppm [1] is on record?
A: Its mortality at 1 ppm is 19%.

Q: What about the mortality at 10 ppm [2] of the same molecule?
A: Its mortality at 10 ppm is 87%.

Q: Which mortality at 1 ppm [1] does the source give for `CC1=C[C@H]2C(=O)O[C@H]3C[C@@H](C/C=C(\C)C[C@@H](C)/C=C/C=C4\C(O)O[C@H]([C@@H]1O)[C@@]42O)O[C@@]1(CC[C@H](C)[C@@H](C)O1)C3` (some centres not stated) [27-HYDROXY MILBEMYCIN A3] here?
A: The mortality at 1 ppm was 7%.

Q: And the mortality at 10 ppm [2]?
A: Its mortality at 10 ppm is 17%.

Q: What does the source list for `CC[C@H]1O[C@]2(CC[C@@H]1C)C[C@@H]1C[C@@H](C/C=C(\C)C[C@@H](C)/C=C/C=C3\C(O)O[C@@H]4[C@H](O)C(C)=C[C@@H](C(=O)O1)[C@]34O)O2` (some centres not stated) [27-HYDROXY MILBEMYCIN A4]?
A: mortality at 1 ppm [1]: 11%; mortality at 10 ppm [2]: 53%

Q: With `CC1=C[C@H]2C(=O)O[C@H]3C[C@@H](C/C=C(\C)C[C@@H](C)/C=C/C=C4\C(=O)O[C@H]([C@@H]1O)[C@@]42O)O[C@@]1(CC[C@H](C)[C@@H](C)O1)C3` [27-OXOMILBEMYCIN A3] as the molecule, how does the mortality at 1 ppm [1] read?
A: The mortality at 1 ppm was 3%.

Q: And the mortality at 10 ppm [2]?
A: The mortality at 10 ppm was 3%.

Q: How did the mortality at 1 ppm [1] turn out when `CC[C@H]1O[C@]2(CC[C@@H]1C)C[C@@H]1C[C@@H](C/C=C(\C)C[C@@H](C)/C=C/C=C3\C(=O)O[C@@H]4[C@H](O)C(C)=C[C@@H](C(=O)O1)[C@]34O)O2` [27-OXOMILBEMYCIN A4] was run?
A: The mortality at 1 ppm was 4%.

Q: What about the mortality at 10 ppm [2] of the same molecule?
A: Its mortality at 10 ppm is 11%.

Q: Which mortality at 1 ppm [1] does the source give for `CC1=C[C@H]2C(=O)O[C@H]3C[C@@H](C/C=C(\C)C[C@@H](C)/C=C/C=C4\CO[C@H]([C@@H]1O)[C@@]42O)O[C@@]1(CC[C@H](C)[C@@H](C)O1)C3` [MILBEMYCIN A3] here?
A: Its mortality at 1 ppm is 3%.

Q: And the mortality at 10 ppm [2]?
A: The mortality at 10 ppm was 69%.

Q: Which results are given for `CC[C@H]1O[C@]2(CC[C@@H]1C)C[C@@H]1C[C@@H](C/C=C(\C)C[C@@H](C)/C=C/C=C3\CO[C@@H]4[C@H](O)C(C)=C[C@@H](C(=O)O1)[C@]34O)O2` [MILBEMYCIN A4]?
A: mortality at 1 ppm [1]: 32%; mortality at 10 ppm [2]: 100%
